The record followed here is patent publication US8822517B2, “Arylosulfonamides for the treatment of CNS diseases” (Adamed SP. Z O.O., priority 2010, dated 2014).

One assay relates to sigma σ receptor. Description: Binding assay σ (non-selective), [3H]DTG, rat cerebral cortex. Particulars: percent inhibition of control specific binding; compounds tested at 1×10^−6 M. Put shortly:
(§1)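 Test conc. 1×10^−6 M. Read-out by scintillation counting. Specific = total − nonspecific (excess cold ligand).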

The subject of another assay is adrenergic α1 receptor. Description: Binding assay α1 (non-selective), [3H]prazosin, rat cerebral cortex. Particulars: percent inhibition of control specific binding; compounds tested at 1×10^−6 M. Put shortly: as §1
In assay [1] the target is T1, serotoninergic 5-HT2A receptor (Homo sapiens, UniProt P28223). The assay can be described thus: Binding assay 5-HT2A (h), [3H]ketanserin, HEK-293 cells. More on the design: expressed in transfected cells; host or cells: HEK-293 cells. To be noted: read-out: 5-HT2A. Put shortly:
as §1

The next assay deals with T2, adrenergic α2C receptor (Homo sapiens, UniProt P18825).
T2 sequence (P18825 1-462): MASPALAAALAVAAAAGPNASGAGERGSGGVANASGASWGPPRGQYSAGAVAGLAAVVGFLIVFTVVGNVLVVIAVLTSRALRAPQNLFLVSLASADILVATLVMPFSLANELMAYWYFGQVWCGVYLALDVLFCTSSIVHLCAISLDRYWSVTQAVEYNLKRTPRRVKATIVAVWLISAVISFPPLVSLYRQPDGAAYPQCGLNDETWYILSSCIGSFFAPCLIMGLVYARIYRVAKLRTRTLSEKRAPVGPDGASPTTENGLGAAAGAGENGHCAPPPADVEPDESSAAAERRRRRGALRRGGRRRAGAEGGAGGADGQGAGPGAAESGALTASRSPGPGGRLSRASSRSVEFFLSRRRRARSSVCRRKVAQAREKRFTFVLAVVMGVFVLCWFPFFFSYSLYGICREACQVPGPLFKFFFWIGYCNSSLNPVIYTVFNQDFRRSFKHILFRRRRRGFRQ
Description: Binding assay α2C (h), [3H]RX 821002, CHO cells. Also noted: expressed in transfected cells; host or cells: CHO cells. To be noted: read-out: α2C [%]. Put shortly: as §1

Assay [2] deals with T1, serotoninergic 5-HT2A receptor. Description: Cellular functional assay, serotoninergic 5-HT2A receptor (agonism/antagonism). To be noted: for activation at 1 µM: read-out: 5-HT2A -ag [%]; for inhibition at 1 µM: read-out: 5-HT2A -antag [%]. In kind it is cell-based. Put shortly: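 Human receptors tested in cell-based functional format for both agonist and antagonist modes. Single compound concentration of 1×10^−6M.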

In assay [3] the target is T3, serotoninergic 5-HT1A receptor (Homo sapiens, UniProt P08908).
T3 sequence (P08908 1-422): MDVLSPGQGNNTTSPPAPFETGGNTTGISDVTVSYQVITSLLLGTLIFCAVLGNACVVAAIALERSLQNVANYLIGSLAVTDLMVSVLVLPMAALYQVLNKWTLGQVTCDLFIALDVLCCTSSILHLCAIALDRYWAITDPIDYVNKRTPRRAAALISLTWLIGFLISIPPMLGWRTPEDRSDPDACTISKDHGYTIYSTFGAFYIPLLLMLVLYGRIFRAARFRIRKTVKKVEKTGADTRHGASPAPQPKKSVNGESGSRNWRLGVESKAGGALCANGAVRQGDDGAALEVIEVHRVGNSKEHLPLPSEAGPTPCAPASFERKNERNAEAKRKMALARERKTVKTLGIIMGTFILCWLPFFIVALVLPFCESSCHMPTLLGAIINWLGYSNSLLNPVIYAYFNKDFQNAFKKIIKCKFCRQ
Description: Binding assay 5-HT1A (h), [3H]8-OH-DPAT, HEK-293 cells. More on the design: expressed in transfected cells; host or cells: HEK-293 cells. Particulars: read-out: 5-HT1A. Put shortly:
as §1

The next assay concerns the target dopaminergic D2 receptor (Homo sapiens, UniProt P14416). The assay can be described thus: Cellular functional assay, dopaminergic D2 receptor (agonism/antagonism). In kind it is cell-based. Particulars: HEK293; for activation at 1 µM: agonist effect, percent of control specific agonist response (3 μM dopamine for control), 1×10^−6 M, D2S (h), HEK-293 cells, read-out: D2-ag [%]; for inhibition at 1 µM: read-out: D2-antag. [%]. The protocol:
(§2) The compounds were tested at the concentration of 1×10^−6M.
(§3) In the Tables ag refers to agonism, and antag to antagonism).

In assay [4] the target is histaminergic H1 receptor (Homo sapiens, UniProt P35367). Description: Cellular functional assay, histaminergic H1 receptor (agonism/antagonism). Type of assay: cell-based. To be noted: for activation at 1 µM: agonist effect, percent of control specific agonist response, compounds tested at 1×10^−6M, read-out: H1 -ag [%]; for inhibition at 1 µM: read-out: H1 -antag. [%]. On the procedure: as §2, §3
Sequence of histaminergic H1 receptor (P35367 whole entry): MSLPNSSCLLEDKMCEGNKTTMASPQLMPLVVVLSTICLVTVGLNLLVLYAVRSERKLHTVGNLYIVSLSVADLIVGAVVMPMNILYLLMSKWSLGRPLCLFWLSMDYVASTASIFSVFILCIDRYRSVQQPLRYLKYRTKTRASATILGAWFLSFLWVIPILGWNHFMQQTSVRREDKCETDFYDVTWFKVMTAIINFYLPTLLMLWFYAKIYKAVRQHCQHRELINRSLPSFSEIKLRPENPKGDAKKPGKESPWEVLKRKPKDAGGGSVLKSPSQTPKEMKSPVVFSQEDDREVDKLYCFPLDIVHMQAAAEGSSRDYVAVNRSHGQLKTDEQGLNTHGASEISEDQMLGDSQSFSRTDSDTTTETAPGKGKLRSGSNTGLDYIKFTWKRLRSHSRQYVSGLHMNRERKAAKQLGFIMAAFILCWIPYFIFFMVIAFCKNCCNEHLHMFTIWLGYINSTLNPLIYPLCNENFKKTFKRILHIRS

The target of assay [5] is T4, serotoninergic receptor 5-HT2C (Homo sapiens, UniProt P28335).
T4 construct: expressed in transfected cells; host or cells: HEK-293 cells
T4 sequence (P28335 33-458): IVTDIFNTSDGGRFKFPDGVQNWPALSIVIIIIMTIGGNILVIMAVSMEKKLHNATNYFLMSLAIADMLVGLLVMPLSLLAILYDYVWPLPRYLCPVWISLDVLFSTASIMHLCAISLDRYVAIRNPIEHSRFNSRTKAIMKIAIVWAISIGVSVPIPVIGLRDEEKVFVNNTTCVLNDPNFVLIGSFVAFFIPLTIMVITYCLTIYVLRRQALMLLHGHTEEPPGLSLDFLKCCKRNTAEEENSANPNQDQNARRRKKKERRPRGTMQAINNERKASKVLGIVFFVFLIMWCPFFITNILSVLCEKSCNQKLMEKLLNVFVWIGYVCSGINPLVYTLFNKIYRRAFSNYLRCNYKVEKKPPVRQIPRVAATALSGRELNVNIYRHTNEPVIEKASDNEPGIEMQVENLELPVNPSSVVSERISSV
The assay can be described thus: Binding assay 5-HT2C (h), [3H]mesulergine, HEK-293 cells. To be noted: read-out: 5-HT2C [%]. Put shortly: as §1

The target of a further assay is dopaminergic D3 receptor (Homo sapiens, UniProt P35462). Description: Binding assay D3 (h), [3H]methyl-spiperone, CHO cells. To be noted: read-out: D3 [%]. More on the design: expressed in transfected cells; host or cells: CHO cells. Put shortly:
as §1

In assay [6] the target is serotoninergic 5-HT7 receptor (Homo sapiens, UniProt P34969). Description: Cellular functional assay, serotoninergic 5-HT7 receptor (agonism/antagonism). Type of assay: cell-based. Particulars: for activation at 1 µM: agonist effect, percent of control specific agonist response, compounds tested at 1×10^−6M, read-out: 5-HT7-ag [%]; for inhibition at 1 µM: read-out: 5-HT7-antag. [%]. The protocol: as §2, §3
Sequence of serotoninergic 5-HT7 receptor (P34969 whole entry): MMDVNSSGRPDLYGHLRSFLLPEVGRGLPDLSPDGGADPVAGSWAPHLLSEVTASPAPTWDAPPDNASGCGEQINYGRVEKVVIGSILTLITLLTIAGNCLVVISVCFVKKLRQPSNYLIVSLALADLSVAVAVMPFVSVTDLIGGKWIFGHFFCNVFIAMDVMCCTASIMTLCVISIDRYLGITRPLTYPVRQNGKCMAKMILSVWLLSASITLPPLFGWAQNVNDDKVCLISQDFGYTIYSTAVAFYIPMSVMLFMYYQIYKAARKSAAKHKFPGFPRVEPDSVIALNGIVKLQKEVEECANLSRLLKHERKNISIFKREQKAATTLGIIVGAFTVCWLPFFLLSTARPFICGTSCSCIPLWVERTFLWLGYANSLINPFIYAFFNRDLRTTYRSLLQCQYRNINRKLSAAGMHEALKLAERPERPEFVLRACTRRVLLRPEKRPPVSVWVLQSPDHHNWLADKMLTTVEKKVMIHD

T1 sequence (P28223 whole entry): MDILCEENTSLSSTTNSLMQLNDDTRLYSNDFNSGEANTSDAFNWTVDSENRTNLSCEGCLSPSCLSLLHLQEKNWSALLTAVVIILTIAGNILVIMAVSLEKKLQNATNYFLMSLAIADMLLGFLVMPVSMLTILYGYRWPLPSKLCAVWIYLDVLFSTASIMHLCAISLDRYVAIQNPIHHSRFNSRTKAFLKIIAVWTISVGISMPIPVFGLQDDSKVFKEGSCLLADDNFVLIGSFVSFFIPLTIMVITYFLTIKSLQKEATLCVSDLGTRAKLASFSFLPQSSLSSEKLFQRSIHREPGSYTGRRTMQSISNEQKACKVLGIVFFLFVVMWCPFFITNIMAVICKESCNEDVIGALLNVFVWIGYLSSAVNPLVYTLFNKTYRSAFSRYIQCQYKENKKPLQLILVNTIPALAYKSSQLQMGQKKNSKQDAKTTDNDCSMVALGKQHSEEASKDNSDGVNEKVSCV
Sequence of dopaminergic D3 receptor (P35462 whole entry): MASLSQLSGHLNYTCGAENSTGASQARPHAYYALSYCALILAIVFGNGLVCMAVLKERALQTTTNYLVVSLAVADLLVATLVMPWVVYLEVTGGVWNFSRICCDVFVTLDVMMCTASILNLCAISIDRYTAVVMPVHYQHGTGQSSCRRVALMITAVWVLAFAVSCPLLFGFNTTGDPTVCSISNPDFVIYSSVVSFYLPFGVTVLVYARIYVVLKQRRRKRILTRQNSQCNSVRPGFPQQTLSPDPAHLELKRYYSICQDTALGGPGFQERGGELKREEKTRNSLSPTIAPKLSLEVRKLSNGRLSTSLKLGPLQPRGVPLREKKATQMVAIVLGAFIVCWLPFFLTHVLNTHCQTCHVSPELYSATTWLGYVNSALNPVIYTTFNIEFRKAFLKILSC
Sequence of dopaminergic D2 receptor (P14416 whole entry): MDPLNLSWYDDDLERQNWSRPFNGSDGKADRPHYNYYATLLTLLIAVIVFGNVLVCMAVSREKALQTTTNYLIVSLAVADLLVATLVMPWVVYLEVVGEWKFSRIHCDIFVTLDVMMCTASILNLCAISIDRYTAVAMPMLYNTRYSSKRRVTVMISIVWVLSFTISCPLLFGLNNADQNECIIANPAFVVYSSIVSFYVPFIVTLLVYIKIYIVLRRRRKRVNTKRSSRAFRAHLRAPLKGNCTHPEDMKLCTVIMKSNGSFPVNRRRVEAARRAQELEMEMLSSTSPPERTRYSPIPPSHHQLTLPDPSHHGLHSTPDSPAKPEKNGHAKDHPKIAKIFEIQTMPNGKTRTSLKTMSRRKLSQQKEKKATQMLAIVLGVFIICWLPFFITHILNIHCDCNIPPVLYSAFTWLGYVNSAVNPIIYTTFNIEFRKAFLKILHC

As for `O=S(=O)(NCCCCN1CCN(c2nsc3ccccc23)CC1)c1cccc2ccccc12` [Compound 1, N-(4-(4-(1,2-Benzothiazol-3-yl)piperazin-1-yl)butyl)naphthalene-1-sulphonamide], the “σ [%]” value in the assay with sigma σ receptor is 54%. For the same compound, the “α1 [%]” value in the assay on adrenergic α1 receptor worked out at 99%. Besides, the inhibition at 1 µM was found to be 99% in assay [1]; 100% on adrenergic α2C receptor; 99% in assay [2]; 96% in [3]; 95% on dopaminergic D2 receptor; 51% in [4]. Further, the figures for the inhibition at 1 µM (in assay [5]; at dopaminergic D3 receptor; in assay [6]) were 80%, 96% and 97%, respectively. Also, the activation at 1 µM was 0% in [2], -1% at dopaminergic D2 receptor, 0% in assay [4] and -1% in [6].

Consider `O=S(=O)(NCCCCN1CCN(c2nsc3ccccc23)CC1)c1cc2ccc(Cl)cc2s1` [Compound 241, N-[4-[4-(1,2-Benzothiazol-3-yl)piperazin-1-yl]butyl]-6-chlorobenzothiophene-2-sulphonamide], for which the “σ [%]” value in the assay with sigma σ receptor turned out to be 51%. For the same compound, the “α1 [%]” value in the assay on adrenergic α1 receptor is 93%. Besides, the inhibition at 1 µM was determined as 101% in assay [1]; 98% at adrenergic α2C receptor; 99% in assay [2]; 98% in [3]; 82% on dopaminergic D2 receptor; 47% in [4]. In addition, the inhibition at 1 µM in [5] turned out to be 96%; at dopaminergic D3 receptor, 97%; in assay [6], 83%. In addition, the activation at 1 µM is -2% in assay [2], 6% on dopaminergic D2 receptor, 1% in assay [4] and -2% in assay [6].

Take `Cc1c(S(=O)(=O)NCCCN2CCC(c3noc4cc(F)ccc34)CC2)sc2ccc(F)cc12` [Compound 102, 5-Fluoro-N-[3-[4-(6-fluoro-1,2-benzoxazol-3-yl)piperidin-1-yl]propyl]-3-methylbenzothiophene-2-sulphonamide]: the “σ [%]” value in the assay with sigma σ receptor amounted to 74%. Also, the “α1 [%]” value with adrenergic α1 receptor is 99%. Also, the inhibition at 1 µM in assay [1] was found to be 101%; at adrenergic α2C receptor, 101%; in assay [2], 99%; in assay [3], 92%; at dopaminergic D2 receptor, 85%; in [4], 48%. The inhibition at 1 µM came out at 76% in [5], 103% at dopaminergic D3 receptor and 94% in assay [6]. Also, the activation at 1 µM was -2% in assay [2], 1% at dopaminergic D2 receptor, 0% in assay [4] and -2% in assay [6].

For `O=S(=O)(NCCCCN1CCC(c2noc3cc(F)ccc23)CC1)c1cc2ccc(Cl)cc2s1` [Compound 314, 6-Chloro-N-[4-[4-(6-fluoro-1,2-benzoxazol-3-yl)piperidin-1-yl]butyl]benzothiophene-2-sulphonamide], the “σ [%]” value in the assay with sigma σ receptor is listed as 49%. Further, the “α1 [%]” value in the assay on adrenergic α1 receptor is 100%. For the same compound, the inhibition at 1 µM in assay [1] was 102%; on adrenergic α2C receptor, 108%; in assay [2], 99%; in assay [3] it was 75%; at dopaminergic D2 receptor, 86%; in assay [4], 50%. In addition, the inhibition at 1 µM in [5] was found to be 85%; on dopaminergic D3 receptor, 100%; in assay [6] it was 95%. The activation at 1 µM is -2% in assay [2], 9% at dopaminergic D2 receptor, 5% in assay [4] and -3% in assay [6].

Take `O=S(=O)(NCCCCN1CCN(c2noc3ccccc23)CC1)c1ccc2cc(Cl)ccc2c1` [Compound 79, N-[4-[4-(1,2-Benzoxazol-3-yl)piperazin-1-yl]butyl]-6-chloro-naphthalene-2-sulphonamide]: the “σ [%]” value in the assay on sigma σ receptor came to 37%. In addition, in the assay with adrenergic α1 receptor, the “α1 [%]” value came to 88%. In addition, the inhibition at 1 µM was 91% in [1]; 106% on adrenergic α2C receptor; 97% in assay [2]; 84% in assay [3]; 77% on dopaminergic D2 receptor; 57% in assay [4]. In addition, the inhibition at 1 µM in assay [5] worked out at 72%; on dopaminergic D3 receptor, 96%; in [6], 97%. Moreover, the activation at 1 µM is -2% in [2], 3% on dopaminergic D2 receptor, 0% in [4] and -2% in assay [6].

On to `O=S(=O)(NCCCCN1CCC(c2noc3cc(F)ccc23)CC1)c1csc2ccccc12` [Compound 313, N-[4-[4-(6-Fluoro-1,2-benzoxazol-3-yl)piperidin-1-yl]butyl]benzothiophene-3-sulphonamide], for which the “σ [%]” value with sigma σ receptor came to 83%. The “α1 [%]” value with adrenergic α1 receptor came to 100%. Besides, the inhibition at 1 µM in assay [1] turned out to be 101%; at adrenergic α2C receptor it was 100%; in [2] it was 98%; in assay [3], 72%; on dopaminergic D2 receptor, 85%; in assay [4], 47%. The results for the inhibition at 1 µM (in assay [5]; on dopaminergic D3 receptor; in assay [6]) were 59%, 99% and 100%, respectively. The activation at 1 µM in assay [2] was -3%; on dopaminergic D2 receptor, -5%; in assay [4], 4%; in assay [6], -2%.

For the compound `O=S(=O)(NCCCCN1CCN(c2nsc3ccccc23)CC1)c1cc2ccccc2s1` [Compound 239, N-[4-[4-(1,2-Benzothiazol-3-yl)piperazin-1-yl]butyl]benzothiophene-2-sulphonamide], the “σ [%]” value in the assay on sigma σ receptor came to 69%. In addition, in the assay with adrenergic α1 receptor, the “α1 [%]” value turned out to be 99%. Further, the inhibition at 1 µM is 101% in [1]; 105% at adrenergic α2C receptor; 94% in [2]; 98% in assay [3]; 84% on dopaminergic D2 receptor; 54% in assay [4]. Also, the inhibition at 1 µM in [5] was 88%; on dopaminergic D3 receptor it was 102%; in [6], 81%. Moreover, the activation at 1 µM in assay [2] is -2%; on dopaminergic D2 receptor, 13%; in assay [4], 0%; in assay [6] it was -2%.
